Consider four molecules from article PMC5849406 (Pharmacological research, 2017).

The IC50 is the concentration that gives 50% inhibition. The EC50 is the concentration that produces a half-maximal response. For orientation: Ki means a measure of affinity in units of concentration, obtained from inhibition or displacement.

Values joined by “and” are separate entries in the source; they are usually repeats but may differ in a detail not shown here. Identical values can stand only once. Like-named read-outs stand apart in the source and are kept apart here. Marks after values point to notes of the source that are not given here.

The subject of test [1] is hCB1Rs. The test is described as follows: Biased hCB1R signaling: ΔΔlog. Further details: species or system human. Particulars: CHO-β2-hCB1, reference CP-55,940; for GTPγS / β-Arrestin 2 (Operational) Bias Factor: 10^ΔΔlog(τ/KA); for AC / β-Arrestin 2 (Competitive) ΔΔLog(τ/KA) / AC / β-Arrestin 2 (Operational) ΔΔLog(τ/KA) / GTPγS / β-Arrestin 2 (Competitive) ΔΔLog(τ/KA) / GTPγS / β-Arrestin 2 (Operational) ΔΔLog(τ/KA): 95% confidence interval in parentheses.

Test [2] addresses T1, hCB1Rs (Homo sapiens, UniProt P21554). The test is described as follows: Forskolin-stimulated intracellular cAMP levels. It is filed as cell-based. Particulars: for cAMP Assay Log(τ/KA): Black-Leff operational model; for cAMP Assay pIC50 / cAMP Assay IMAX / IC50: intact CHO-β2-hCB1 cells; for cAMP Assay pIC50 / IC50: 10 µM forskolin; for cAMP Assay IMAX: fraction of the effect produced by the reference agonist CP-55,940; for IC50: read-out: cAMP Assay IC50. A general note: Cyclic AMP is a second messenger, typically raised through Gs and lowered through Gi signalling.

Test [3] has as its target T1, hCB1Rs. The test is described as follows: [^35S]GTPγS binding. Format: biochemical. To be noted: for ^35S-GTPγS Binding Assay ΔLog(τ/KA): CHO-β2-hCB1, normalized to reference CP-55,940, 95% CI printed in the cell; for ^35S-GTPγS Binding Assay EMAX: fraction of the effect produced by the reference agonist CP-55,940; for EC50: read-out: ^35S-GTPγS Binding Assay EC50. A general note: Binding of GTPγS marks nucleotide exchange on a G protein.

For test [4], the target named is T1, hCB1Rs. Format: binding. Particulars: 0.2 nM [^3H]-CP55,940; for ^3H-CP-55,940 Binding pKi: mean ± S.E.M.; for Ki: read-out: ^3H-CP-55,940 Binding Ki.
Test [5] addresses T1, hCB1Rs. Format: cell-based. Particulars: for β-Arrestin 2 Assay (Operational) ΔLog(τ/KA): normalized to reference CP-55,940; for β-Arrestin 2 Assay (Operational) Log(τ/KA): operational model; for β-Arrestin 2 Assay EMAX / β-Arrestin 2 Assay pEC50 / EC50: CHO-β2-hCB1 cells; for β-Arrestin 2 Assay EMAX: 90 min, fraction of the effect produced by the reference agonist CP-55,940; for β-Arrestin 2 Assay pEC50 / EC50: 90 min incubation; for EC50: read-out: β-Arrestin 2 Assay EC50.

For test [6], the system named is hCB1 and hCB2Rs. Particulars: ref [29]; cited from earlier work.
In test [7] the target is T1, hCB1Rs. The test is described as follows: CB1 receptor down-regulation after chronic drug exposure. It is filed as cell-based.
Test [8] has as its target T1, hCB1Rs. As to the kind of experiment: CB1 receptor desensitization after chronic drug exposure. It is filed as cell-based. Particulars: CHO-hCB1-Rx cells; at 1 hr; CP-55,940 10^−7 M or PNR-4-20 10^−5 M.
Test [9] relates to NIH-Swiss mice. As to the kind of experiment: In vivo cannabinoid tetrad. Further details: species or system mouse.
[10] abbreviates: CHO-β2-hCB1, 95% CI printed in the cell.

T1 sequence (P21554 whole entry): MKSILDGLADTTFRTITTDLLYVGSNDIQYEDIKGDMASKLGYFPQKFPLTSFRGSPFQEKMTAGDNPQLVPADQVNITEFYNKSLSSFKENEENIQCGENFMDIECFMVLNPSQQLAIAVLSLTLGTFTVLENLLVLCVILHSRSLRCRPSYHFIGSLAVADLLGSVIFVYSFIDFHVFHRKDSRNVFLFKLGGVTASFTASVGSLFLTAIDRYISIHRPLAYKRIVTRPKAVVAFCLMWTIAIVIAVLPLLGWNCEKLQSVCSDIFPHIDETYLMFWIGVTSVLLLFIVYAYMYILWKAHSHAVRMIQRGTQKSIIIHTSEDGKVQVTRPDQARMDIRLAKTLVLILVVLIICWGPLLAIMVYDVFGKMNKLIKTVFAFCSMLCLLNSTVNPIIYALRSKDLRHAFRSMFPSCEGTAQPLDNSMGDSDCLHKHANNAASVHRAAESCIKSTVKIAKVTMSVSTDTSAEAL

As to `CCCCCCC(C)(C)c1ccc([C@@H]2C[C@H](O)CC[C@H]2CCCO)c(O)c1` [CP-55,940], in [1], the “AC / β-Arrestin 2 (Competitive) Bias Factor” value amounted to 1.00, the “AC / β-Arrestin 2 (Operational) Bias Factor” value is given as 1.00, the “GTPγS / β-Arrestin 2 (Competitive) Bias Factor” value was 1.00 and the “GTPγS / β-Arrestin 2 (Operational) Bias Factor” value was 1.0. Also, in [1], the “AC / β-Arrestin 2 (Competitive) ΔΔLog(τ/KA)” value stood at 0.0, the “AC / β-Arrestin 2 (Operational) ΔΔLog(τ/KA)” value came out at 0.0, the “GTPγS / β-Arrestin 2 (Competitive) ΔΔLog(τ/KA)” value amounted to 0.0 and the “GTPγS / β-Arrestin 2 (Operational) ΔΔLog(τ/KA)” value was 0.0.

For the molecule `CCCCCn1cc(C(=O)c2cccc3ccccc23)c2ccccc21` [JWH-018, reference compound], in test [2] (setting [10]), the “cAMP Assay Log(τ/KA)” value is reported as 8.56^b (8.17 to 8.94). Besides, in test [2], the “cAMP Assay pIC50” value is given as 8.82±0.15^b, the “cAMP Assay IMAX” value was 0.90±0.05^a and the IC50 stood at 1.73 nM. Further, in [3], the “^35S-GTPγS Binding Assay ΔLog(τ/KA)” value is given as −0.12^a (−0.69 to −0.45). Also, in test [3] (CHO-β2-hCB1 membranes), the “^35S-GTPγS Binding Assay pEC50” value is reported as 9.25±0.23^a; the “^35S-GTPγS Binding Assay EMAX” value is 1.02 ± 0.10 fractional units and 1.02±0.10^a fractional units; the EC50 amounted to 0.749 nM. For the same molecule, in test [1], the “AC / β-Arrestin 2 (Operational) Bias Factor” value is on record as 0.21; the “CB1R bias between G protein-dependent and β-arrestin 2 signaling (in words)” value is “little CB1R bias”; the “GTPγS / β-Arrestin 2 (Operational) Bias Factor” value was found to be 2.0; the “GTPγS / β-Arrestin 2 (Operational) ΔΔLog(τ/KA)” value is on record as 0.30 (−0.20 to 0.81). Further, the “^3H-CP-55,940 Binding pKi” value in [4] (CHO-β2-hCB1 membranes) is listed as 9.12±0.06^a. In addition, in [5] (setting [10]), the “β-Arrestin 2 Assay (Operational) ΔLog(τ/KA)” value is recorded as 0.18^a (−0.15 to 0.51) and the “β-Arrestin 2 Assay (Operational) Log(τ/KA)” value is given as 7.27^a (7.20 to 7.34). For the same molecule, in test [5], the “β-Arrestin 2 Assay EMAX” value is 1.16 ± 0.16 fractional units and 1.16±0.16^a fractional units; the “β-Arrestin 2 Assay pEC50” value is given as 7.17±0.08^a; the EC50 came out at 78.1 nM.

On to `O=C1/C(=C/c2cn(Cc3ccc(F)cc3)c3ccccc23)N2CCC1CC2` [PNR-4-20], for which the “selectivity of binding between hCB1 and hCB2Rs” value in test [6] was “bind relatively non-selectively to hCB1 and hCB2Rs”. Moreover, the “effect of chronic exposure on KD of [^3H]-CP-55,940” value in test [7] (10 hr exposure, data not shown) is “does not alter the KD of [^3H]-CP-55,940”. Also, the “reduction in binding (hCB1R density)” value in [7] (CHO-hCB1-Rx cells, 10 hrs exposure, PNR-4-20 10^−5 M) is listed as 42.2 ± 1.7%. Further, the “maximal reduction of hCB1R density” value in test [7] (CHO-hCB1-Rx cells, PNR-4-20 10^−5 M, 0 to 10 hrs) came out at 76.4 ± 3.6%. Besides, the “maximal reduction of CB1R density” value in test [7] (CHO-β2-hCB1 cells, at 2 hrs, CP-55,940 10^−7 M or PNR-4-20 10^−5 M) amounted to 39.7 ± 4.9%. Further, the “cAMP Assay Log(τ/KA)” value in [2] (setting [10]) is recorded as 6.45^c (6.02 to 6.88). The “cAMP Assay ΔLog(τ/KA)” value in test [2] (CHO-β2-hCB1, normalized to reference CP-55,940, 95% CI printed in the cell) is listed as −1.25^c (−1.58 to −0.93). For the same molecule, in test [2], the “cAMP Assay pIC50” value was 6.97±0.34^a,c, the “cAMP Assay IMAX” value was 1.26±0.10^a and the IC50 was found to be 180 nM. In addition, in [3] (CHO-hCB1-Rx membranes), the “^35S-GTPγS Binding Assay pEC50” value is on record as 6.89±0.09 and the EC50 amounted to 130 nM. Besides, the “^35S-GTPγS Binding Assay ΔLog(τ/KA)” value in [3] was −1.99^b (−2.54 to −1.43). Also, in test [3] (CHO-β2-hCB1 membranes), the “^35S-GTPγS Binding Assay pEC50” value is reported as 7.29±0.09^b, the “^35S-GTPγS Binding Assay EMAX” value was 1.02 ± 0.10 fractional units and the EC50 was 53.9 nM. The “^35S-GTPγS Binding Assay EMAX” value in [3] (CHO-β2-hCB1 membranes, listed as PNR-420) is 1.02±0.10^a fractional units. Further, in test [1], the “AC / β-Arrestin 2 (Competitive) Bias Factor” value was found to be 13.5, the “AC / β-Arrestin 2 (Operational) Bias Factor” value came out at 29.5, the “GTPγS / β-Arrestin 2 (Competitive) Bias Factor” value worked out at 2.5 and the “GTPγS / β-Arrestin 2 (Operational) Bias Factor” value came to 5.4. For the same molecule, in [1], the “AC / β-Arrestin 2 (Competitive) ΔΔLog(τ/KA)” value is 1.13 (0.7 to 1.56), the “AC / β-Arrestin 2 (Operational) ΔΔLog(τ/KA)” value is 1.47 (0.93 to 2.00), the “GTPγS / β-Arrestin 2 (Competitive) ΔΔLog(τ/KA)” value is recorded as 0.40 (0.09 to 0.89) and the “GTPγS / β-Arrestin 2 (Operational) ΔΔLog(τ/KA)” value was 0.73 (0.09 to 1.36). Moreover, in test [4] (CHO-hCB1-Rx membranes), the “^3H-CP-55,940 Binding pKi” value stood at 7.11±0.13 and the Ki is 85.1 nM. In addition, in [4] (CHO-β2-hCB1 membranes), the “^3H-CP-55,940 Binding pKi” value is given as 6.83±0.03^b and the Ki is 159 nM. In [5] (CHO-β2-hCB1, competitive operational model, 95% CI printed in the cell), the “β-Arrestin 2 Assay (Competitive) Log(τ/KA)” value is 4.84^b (4.53 to 5.16). In addition, in [5] (setting [10]), the “β-Arrestin 2 Assay (Operational) ΔLog(τ/KA)” value is −2.72^b (−3.33 to −2.10) and the “β-Arrestin 2 Assay (Operational) Log(τ/KA)” value was 4.37^b (3.82 to 4.93). In [5], the “β-Arrestin 2 Assay EMAX” value stood at 0.24 ± 0.02 fractional units, the “β-Arrestin 2 Assay pEC50” value was 5.28±0.06^b and the concentration for a half-maximal effect (EC50) came out at 5410 nM. Besides, the “β-Arrestin 2 Assay EMAX” value in [5] (listed as PNR-420) is 0.24±0.02^b fractional units. In addition, in [5] (CP-55,940 10^−7 M, test ligand 10^−7 to 10^−4 M), the “effect on β-arrestin 2 recruitment produced by CP-55,940 (co-incubation)” value is recorded as “decreased”. Moreover, in test [8], the “maximal reduction of G protein activation by CP-55,940 (10^−7 M)” value was found to be 46.0 ± 5.8%. The “activity in the cannabinoid tetrad” value in test [9] (NIH-Swiss mice, 10, 30, or 100 mg/kg i.p., assessed 35 min after injection) is reported as “exhibits activity consistent with that of a CB1R agonist in all four measures of the cannabinoid tetrad”. In addition, the “time of peak hypothermic effects after injection” value in [9] (mice, radiotelemetry pilot studies, 5-min intervals, data not shown) is recorded as 35 min.

Take `Cc1c(C(=O)NN2CCCCC2)nn(-c2ccc(Cl)cc2Cl)c1-c1ccc(Cl)cc1` [rimonabant, reference compound]: the “reversal of PNR-4-20 tetrad effects by co-administered antagonist” value in test [9] (rimonabant 10 mg/kg with 100 mg/kg PNR-4-20, i.p., mice) is “significant reversal of the effects of PNR-4-20 on rectal temperature and catalepsy”.
